Measured values from US20240301409A1, “Chemically Modified Small Activating RNA” (RACTIGEN THERAPEUTICS, priority 2021, published 2024).

Test system: T24 cells
Assay: Cellular proliferation assay (CCK8) in T24 cells, alone and combined with Mitomycin C or valrubicin
Assay type: cell-based, human
Summary of the method: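 Cells transfected with saRNA RAG1-40-31 (0.1–50 nM) for 24 h, then Mitomycin C or valrubicin (1–10000 nM) added in paired concentrations; single-agent saRNA at 10 nM for 72 h. Viability by CCK8 absorbance at 450 nm after 1 h at 37 °C, as % of blank transfection control.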

## RAG1-40-31: saRNA duplex: sense fCfCAACUCAUUCUCCAAG*U*C (SEQ ID NO 16); antisense U*A*fCfUfUGGAGAAfUGAGfUfUGG*fC*A (SEQ ID NO 12) (sense CCAACUCAUUCUCCAAGUC; antisense UACUUGGAGAAUGAGUUGGCA; 2'-F and phosphorothioate modifications; modified_base (1)..(2) (1,2)=2′-fluoro; modified_base (17)..(19) (17,18,19)=phosphorothioate (PS) backbone modification; modified_base (2)..(21) (2,3,19,20,21)=phosphorothioate (PS) backbone modification; modified_base (3)..(20) (3,4,5,12,16,17,20)=2′-fluoro)
RAG1-40-31 50 nM + valrubicin 1000 nm
  Relative proliferation proportion of T24 cells: 10.9%
RAG1-40-31 50 nM + valrubicin 10000 nm
  Relative proliferation proportion of T24 cells: 3.1%
RAG1-40-31 50 nM, Control (no MMC)
  Relative proliferation proportion of T24 cells: 14.7%
RAG1-40-31 50 nM, Control (no valrubicin)
  Relative proliferation proportion of T24 cells: 13.8%
T24 cells, RAG1-40-31 0.1 nM + MMC 1 nM
  Combination Index (CI): 0.42
T24 cells, RAG1-40-31 0.1 nM + MMC 10 nM
  Combination Index (CI): 1.59
T24 cells, RAG1-40-31 0.1 nM + MMC 100 nM
  Combination Index (CI): 0.64
T24 cells, RAG1-40-31 0.1 nM + MMC 1000 nM
  Combination Index (CI): 0.49
T24 cells, RAG1-40-31 0.1 nM + MMC 10000 nM
  Combination Index (CI): 1.05
T24 cells, RAG1-40-31 0.1 nM + Valrubicin 10000 nM
  Combination Index (CI): 0.38
T24 cells, RAG1-40-31 0.1 nM + valrubicin 1 nM
  Combination Index (CI): 1.9
T24 cells, RAG1-40-31 0.1 nM + valrubicin 10 nM
  Combination Index (CI): 17.16
T24 cells, RAG1-40-31 0.1 nM + valrubicin 100 nM
  Combination Index (CI): 11.04
T24 cells, RAG1-40-31 0.1 nM + valrubicin 1000 nM
  Combination Index (CI): 1.48
T24 cells, RAG1-40-31 0.5 nM + MMC 1 nM
  Combination Index (CI): 0.97
T24 cells, RAG1-40-31 0.5 nM + MMC 10 nM
  Combination Index (CI): 1.40
T24 cells, RAG1-40-31 0.5 nM + MMC 100 nM
  Combination Index (CI): 0.67
T24 cells, RAG1-40-31 0.5 nM + MMC 1000 nM
  Combination Index (CI): 0.46
T24 cells, RAG1-40-31 0.5 nM + MMC 10000 nM
  Combination Index (CI): 1.06
T24 cells, RAG1-40-31 0.5 nM + Valrubicin 10000 nM
  Combination Index (CI): 0.4
T24 cells, RAG1-40-31 0.5 nM + valrubicin 1 nM
  Combination Index (CI): 2.71
T24 cells, RAG1-40-31 0.5 nM + valrubicin 10 nM
  Combination Index (CI): 6.02
T24 cells, RAG1-40-31 0.5 nM + valrubicin 100 nM
  Combination Index (CI): 8.68
T24 cells, RAG1-40-31 0.5 nM + valrubicin 1000 nM
  Combination Index (CI): 0.92
T24 cells, RAG1-40-31 1 nM + MMC 1 nM
  Combination Index (CI): 0.96
T24 cells, RAG1-40-31 1 nM + MMC 10 nM
  Combination Index (CI): 0.88
T24 cells, RAG1-40-31 1 nM + MMC 100 nM
  Combination Index (CI): 0.69
T24 cells, RAG1-40-31 1 nM + MMC 1000 nM
  Combination Index (CI): 0.41
T24 cells, RAG1-40-31 1 nM + MMC 10000 nM
  Combination Index (CI): 0.84
T24 cells, RAG1-40-31 1 nM + Valrubicin 10000 nM
  Combination Index (CI): 0.33
T24 cells, RAG1-40-31 1 nM + valrubicin 1 nM
  Combination Index (CI): 1.23
T24 cells, RAG1-40-31 1 nM + valrubicin 10 nM
  Combination Index (CI): 0.92
T24 cells, RAG1-40-31 1 nM + valrubicin 100 nM
  Combination Index (CI): 1.02
T24 cells, RAG1-40-31 1 nM + valrubicin 1000 nM
  Combination Index (CI): 0.93
T24 cells, RAG1-40-31 5 nM + MMC 1 nM
  Combination Index (CI): 0.61
T24 cells, RAG1-40-31 5 nM + MMC 10 nM
  Combination Index (CI): 0.60
T24 cells, RAG1-40-31 5 nM + MMC 100 nM
  Combination Index (CI): 0.45
T24 cells, RAG1-40-31 5 nM + MMC 1000 nM
  Combination Index (CI): 0.24
T24 cells, RAG1-40-31 5 nM + MMC 10000 nM
  Combination Index (CI): 0.46
T24 cells, RAG1-40-31 5 nM + Valrubicin 10000 nM
  Combination Index (CI): 0.12
T24 cells, RAG1-40-31 5 nM + valrubicin 1 nM
  Combination Index (CI): 0.73
T24 cells, RAG1-40-31 5 nM + valrubicin 10 nM
  Combination Index (CI): 0.59
T24 cells, RAG1-40-31 5 nM + valrubicin 100 nM
  Combination Index (CI): 0.99
T24 cells, RAG1-40-31 5 nM + valrubicin 1000 nM
  Combination Index (CI): 0.47
T24 cells, RAG1-40-31 10 nM + MMC 1 nM
  Combination Index (CI): 0.52
T24 cells, RAG1-40-31 10 nM + MMC 10 nM
  Combination Index (CI): 0.77
T24 cells, RAG1-40-31 10 nM + MMC 100 nM
  Combination Index (CI): 0.47
T24 cells, RAG1-40-31 10 nM + MMC 1000 nM
  Combination Index (CI): 0.19
T24 cells, RAG1-40-31 10 nM + MMC 10000 nM
  Combination Index (CI): 0.30
T24 cells, RAG1-40-31 10 nM + Valrubicin 10000 nM
  Combination Index (CI): 0.09
T24 cells, RAG1-40-31 10 nM + valrubicin 1 nM
  Combination Index (CI): 0.82
T24 cells, RAG1-40-31 10 nM + valrubicin 10 nM
  Combination Index (CI): 0.62
T24 cells, RAG1-40-31 10 nM + valrubicin 100 nM
  Combination Index (CI): 0.83
T24 cells, RAG1-40-31 10 nM + valrubicin 1000 nM
  Combination Index (CI): 0.63
T24 cells, RAG1-40-31 25 nM + MMC 1 nM
  Combination Index (CI): 0.92
T24 cells, RAG1-40-31 25 nM + MMC 10 nM
  Combination Index (CI): 1.38
T24 cells, RAG1-40-31 25 nM + MMC 100 nM
  Combination Index (CI): 0.73
T24 cells, RAG1-40-31 25 nM + MMC 1000 nM
  Combination Index (CI): 0.28
T24 cells, RAG1-40-31 25 nM + MMC 10000 nM
  Combination Index (CI): 0.36
T24 cells, RAG1-40-31 25 nM + Valrubicin 10000 nM
  Combination Index (CI): 0.1
T24 cells, RAG1-40-31 25 nM + valrubicin 1 nM
  Combination Index (CI): 0.97
T24 cells, RAG1-40-31 25 nM + valrubicin 10 nM
  Combination Index (CI): 1.25
T24 cells, RAG1-40-31 25 nM + valrubicin 100 nM
  Combination Index (CI): 1.25
T24 cells, RAG1-40-31 25 nM + valrubicin 1000 nM
  Combination Index (CI): 0.67
T24 cells, RAG1-40-31 25 nM and 50 nM + Mitomycin C 1, 10, 100, 1000 and 10000 nM
  relative proliferation proportions of cells: lower than 21%
T24 cells, RAG1-40-31 25 nM and 50 nM + valrubicin 1, 10, 100, 1000 and 10000 nM
  relative proliferation proportion of cells: lower than 21%
T24 cells, RAG1-40-31 50 nM + MMC 1 nM
  Combination Index (CI): 2.59
T24 cells, RAG1-40-31 50 nM + MMC 10 nM
  Combination Index (CI): 2.60
T24 cells, RAG1-40-31 50 nM + MMC 100 nM
  Combination Index (CI): 1.31
T24 cells, RAG1-40-31 50 nM + MMC 1000 nM
  Combination Index (CI): 0.50
T24 cells, RAG1-40-31 50 nM + MMC 10000 nM
  Combination Index (CI): 0.47
T24 cells, RAG1-40-31 50 nM + Valrubicin 10000 nM
  Combination Index (CI): 0.19
T24 cells, RAG1-40-31 50 nM + valrubicin 1 nM
  Combination Index (CI): 2.12
T24 cells, RAG1-40-31 50 nM + valrubicin 10 nM
  Combination Index (CI): 2.3
T24 cells, RAG1-40-31 50 nM + valrubicin 100 nM
  Combination Index (CI): 2.3
T24 cells, RAG1-40-31 50 nM + valrubicin 1000 nM
  Combination Index (CI): 1.04
T24 cells, RAG1-40-31 0.1-50 nM + Mitomycin C 1000 and 10000 nM
  relative proliferation proportions of cells: lower than 18%
T24 cells, RAG1-40-31 0.1-50 nM + valrubicin 1000 nM and 10000 nM
  relative proliferation proportions of cells: lower than 60%
T24 cells, RAG1-40-31 5-50 nM + Mitomycin C 1, 10, 100, 1000 and 10000 nM
  relative proliferation proportions of cells: lower than 40%
T24 cells, RAG1-40-31 5-50 nM + valrubicin 1, 10, 100, 1000 and 10000 nM
  relative proliferation proportions of cells: lower than 40%
T24 tumor cells
  effect of combined use with Mitomycin C or valrubicin, in words: synergistic effect
